In patent US8105604B2, “WT1 modified peptide” (International Institute of Cancer Immunology, Inc., priority 2001, dated 2012):
Where two headings read alike, the source gives them in different places. Residues, ends and D or L forms follow the SMILES beside them. No end group written: not given here.

Experiments:
[1] = test system: peripheral blood mononuclear cells from HLA-A*2402-positive donors; assay: Stimulation of peripheral blood mononuclear cells with peptide; status of the resulting cells; type: cell-based, human
Description: Peripheral blood mononuclear cells were isolated from HLA-A*2402-positive donors and distributed among the wells of a 24-well plate at 2×10^6 cells/well followed by the addition of WT1 wild peptide or WT1 modified peptide to a concentration of 20 μM and culturing for 1 week. The medium used at this time consisted of 45% RPMI, 45% AIV, 10% FCS 1× non-essential amino acids and SM/PCG. Following the aforementioned culturing, the cells were adjusted to 2×10^6 cells/well and used as responder cells.
On the other hand, other peripheral blood mononuclear cells were similarly isolated from the same HLA-A*2402-positive donors and then peptide-pulsed by culturing for 4 days with one of the aforementioned peptides at 20 μM. After then irradiating at 30 Gy, the cells were adjusted to 4×10^6 cells/well and used as stimulator cells.
The responder cells and stimulator cells prepared in the manner described above were then mixed and then cultured for 1 week following the addition of IL-2 at 50 U/ml.

C1R2402 cells = assay: Killing assay (51Cr release) by peptide-stimulated effector cells on peptide-pulsed C1R2402 target cells; type: cell-based
Text: FIG. 1 is a graph showing the cell killing effects (specific cytolytic activity) on C1R2402 target cells (T), either pulsed or not pulsed with peptide, by effecter cells (E) stimulated with WT1 wild peptide (Sequence ID No. 2) or the WT1 modified peptide of the present invention (Sequence ID No. 3). In the graph, the black circles indicate the cytolytic effect on C1R2402 target cells pulsed with wild peptide by effecter cells stimulated with WT1 modified peptide, the black squares indicate the cytolytic effect on […] target cells pulsed with wild peptide by effecter cells stimulated with WT1 wild peptide, the white circles indicate the cytolytic effect on C1R2402 target cells not pulsed with wild peptide by effecter cells stimulated with WT1 modified peptide, and the white squares indicate the cytolytic effect on C1R2402 target cells not pulsed with wild peptide by effecter cells stimulated with WT1 wild peptide.
FIG. 3 is a graph showing the cell killing effects (specific cytolytic activity) on C1R2402 target cells, either pulsed or not pulsed with peptide, by effecter cells stimulated with WT1 wild peptide or the WT1 modified peptide of the present invention. […]

[2] = test system: leukemia cells from AML patients (WT1+/A*2402+); assay: 51Cr release cell killing assay on leukemia cells endogenously expressing WT1 antigen; type: cell-based, human; details: FIG. 2, E:T 20:1, 4 hours, AML patient cells WT1+/-
Description: The cell killing activity of effector cells stimulated with WT1 wild peptide or WT1 modified peptide on leukemia cells that endogenously express WT1 antigen was tested according to the ^51Cr release method.

[3] = test system: RERF-LCAI, LC1sq, 11-18 and LK87 lung cancer cells; assay: 51Cr release cytotoxicity assay on lung cancer cell lines; type: cell-based; details: FIG. 4; E:T 20:1, 4 hours
Description: The cytotoxic activity of effector cells stimulated with WT1 wild peptide or WT1 modified peptide was tested on a cancer cell line associated with lung cancer that endogenously expresses WT1 antigen (target cells) using the ^51Cr release method.

[4] = test system: C1R2402 cells pulsed with WT1 wild peptide; assay: Blocking assay using antibody (51Cr release); type: cell-based; details: FIG. 5; E:T 20:1, 4 hours; anti-HLA class I, anti-HLA class II, anti-CD8 antibody
Text: The antibodies used consisted of anti-HLA class I antibody, anti-HLA class II antibody and anti-CD8 antibody.

HLA-A*2402 [5] = target: T1, HLA-A*2402 (Homo sapiens, UniProt P04439, D101N/D140Y/D185E/E176V/E190D/F33S/G103R/G107R/I119L/I121M/I306V/K335N/L105A/L180Q/L300P/N151K/N90K/Q86E/Q94H/R106L/R138H/R89G/T104I/T345S/V100E/W191G/Y123F); assay: Binding affinity to HLA-A*2402 on acid-treated C1RA2402 cells (flow cytometry)
Description: After washing the cells with the medium, they were suspended at a concentration of 2×10^6 cells/ml in DMEM medium containing 200 nM β2-microglobulin (Sigma) and 0.5% bovine serum albumin. 15 μl of the cell suspension were mixed with 50 μl of the medium comprising various concentrations of WT1 peptide followed by incubating for 4 hours at room temperature. After washing the cells, they were stained with monoclonal antibody to HLA-A24 labeled with FITC (clone name: 7A12), and the amount of HLA-A24 expressed was analyzed with a flow cytometer FACS system.

HLA-A*2402 [6] = target: T1, HLA-A*2402; details: reported in J. Immunol., 154, 5994, 1995; cited from earlier work
[7] = resulting cells after stimulation with 20 μM peptide and IL-2 50 U/ml

Row | Molecule | No. of cells ([1]; PBMC stimulated with 20 μM peptide, responder plus stimulator cells cultured 1 week with IL-2 50 U/ml) | CD4 [1, 7] | CD8 [1, 7] | cell killing activity (cell lysis) of peptide-stimulated effector cells (C1R2402 cells; Example 1, FIG. 1, E:T ratio 1, 5, 20, C1R2402 target cells pulsed or not pulsed with peptide) | cytotoxic activity of peptide-stimulated effector cells (C1R2402 cells; Example 3, FIG. 3, effector cells from different healthy HLA-A*2402-positive donors) | cytotoxic activity of peptide-stimulated effector cells on leukemia cells [2] | cytotoxic activity of peptide-stimulated effector cells on lung cancer cell lines [3] | blocking of cytotoxic activity of peptide-stimulated effector cells by antibodies [4] | binding affinity for HLA-A*2402 (comparison) (HLA-A*2402 [5]) | Kd (HLA-A*2402 [5]; calculated using pmel 15 antigen peptide as standard, 4 hours at room temperature, read-out: Dissociation constant Kd) | binding to HLA-A*2402 (HLA-A*2402 [6]) | Kd (HLA-A*2402 [5])
1 | CSCC[C@H](NC(=O)[C@H](CCC(N)=O)NC(=O)[C@H](CC(N)=O)NC(=O)[C@H](Cc1c[nH]c2ccccc12)NC(=O)[C@@H](NC(=O)[C@H](Cc1ccc(O)cc1)NC(=O)[C@@H](N)CS)[C@@H](C)O)C(=O)N[C@@H](CC(N)=O)C(=O)N[C@@H](CC(C)C)C(=O)O [WT1 modified peptide, Cys Tyr Thr Trp Asn Gln Met Asn Leu] (H-CYTWNQMNL-OH; N-terminus and C-terminus assumed) | 3.0 × 10^6/well | 18% | 38% | more potent cell killing activity than cells stimulated with WT1 wild peptide | more potent cytotoxic activity than cells stimulated with WT1 wild peptide | the level of that activity was higher | the level of that activity was higher | blocked by anti-HLA class I antibody and anti-CD8 antibody | stronger binding affinity for HLA-A*2402 than the WT1 wild peptide | 0.64 µM |  | 
2 | AYGLDFYIL [melanoma antigen peptide used as standard for the Kd calculation] |  |  |  |  |  |  |  |  |  |  | reported to bind to HLA-A*2402 | 
3 | CSCC[C@H](NC(=O)[C@H](CCC(N)=O)NC(=O)[C@H](CC(N)=O)NC(=O)[C@H](Cc1c[nH]c2ccccc12)NC(=O)[C@@H](NC(=O)[C@H](CCSC)NC(=O)[C@@H](N)CS)[C@@H](C)O)C(=O)N[C@@H](CC(N)=O)C(=O)N[C@@H](CC(C)C)C(=O)O [WT1 wild peptide, Cys Met Thr Trp Asn Gln Met Asn Leu, reference compound] (H-CMTWNQMNL-OH) |  |  |  |  |  | demonstrated cytotoxic activity on the WT1+/A*2402 cells | demonstrated cytotoxic activity only on the WT1+/A*2402+ cells | blocked by anti-HLA class I antibody and anti-CD8 antibody |  |  |  | 18.2 µM
